These are literature values, as cited in patent US7713983B2 (priority 2003, dated 2010).

For one data set, the target named is NaV1.3 (Homo sapiens, UniProt Q9NY46). Conditions: read-out: TTX IC50.
The subject of the next data set is neuropathic pain. Conditions: in vivo.

Chain of NaV1.3 (Q9NY46 whole entry, looked up): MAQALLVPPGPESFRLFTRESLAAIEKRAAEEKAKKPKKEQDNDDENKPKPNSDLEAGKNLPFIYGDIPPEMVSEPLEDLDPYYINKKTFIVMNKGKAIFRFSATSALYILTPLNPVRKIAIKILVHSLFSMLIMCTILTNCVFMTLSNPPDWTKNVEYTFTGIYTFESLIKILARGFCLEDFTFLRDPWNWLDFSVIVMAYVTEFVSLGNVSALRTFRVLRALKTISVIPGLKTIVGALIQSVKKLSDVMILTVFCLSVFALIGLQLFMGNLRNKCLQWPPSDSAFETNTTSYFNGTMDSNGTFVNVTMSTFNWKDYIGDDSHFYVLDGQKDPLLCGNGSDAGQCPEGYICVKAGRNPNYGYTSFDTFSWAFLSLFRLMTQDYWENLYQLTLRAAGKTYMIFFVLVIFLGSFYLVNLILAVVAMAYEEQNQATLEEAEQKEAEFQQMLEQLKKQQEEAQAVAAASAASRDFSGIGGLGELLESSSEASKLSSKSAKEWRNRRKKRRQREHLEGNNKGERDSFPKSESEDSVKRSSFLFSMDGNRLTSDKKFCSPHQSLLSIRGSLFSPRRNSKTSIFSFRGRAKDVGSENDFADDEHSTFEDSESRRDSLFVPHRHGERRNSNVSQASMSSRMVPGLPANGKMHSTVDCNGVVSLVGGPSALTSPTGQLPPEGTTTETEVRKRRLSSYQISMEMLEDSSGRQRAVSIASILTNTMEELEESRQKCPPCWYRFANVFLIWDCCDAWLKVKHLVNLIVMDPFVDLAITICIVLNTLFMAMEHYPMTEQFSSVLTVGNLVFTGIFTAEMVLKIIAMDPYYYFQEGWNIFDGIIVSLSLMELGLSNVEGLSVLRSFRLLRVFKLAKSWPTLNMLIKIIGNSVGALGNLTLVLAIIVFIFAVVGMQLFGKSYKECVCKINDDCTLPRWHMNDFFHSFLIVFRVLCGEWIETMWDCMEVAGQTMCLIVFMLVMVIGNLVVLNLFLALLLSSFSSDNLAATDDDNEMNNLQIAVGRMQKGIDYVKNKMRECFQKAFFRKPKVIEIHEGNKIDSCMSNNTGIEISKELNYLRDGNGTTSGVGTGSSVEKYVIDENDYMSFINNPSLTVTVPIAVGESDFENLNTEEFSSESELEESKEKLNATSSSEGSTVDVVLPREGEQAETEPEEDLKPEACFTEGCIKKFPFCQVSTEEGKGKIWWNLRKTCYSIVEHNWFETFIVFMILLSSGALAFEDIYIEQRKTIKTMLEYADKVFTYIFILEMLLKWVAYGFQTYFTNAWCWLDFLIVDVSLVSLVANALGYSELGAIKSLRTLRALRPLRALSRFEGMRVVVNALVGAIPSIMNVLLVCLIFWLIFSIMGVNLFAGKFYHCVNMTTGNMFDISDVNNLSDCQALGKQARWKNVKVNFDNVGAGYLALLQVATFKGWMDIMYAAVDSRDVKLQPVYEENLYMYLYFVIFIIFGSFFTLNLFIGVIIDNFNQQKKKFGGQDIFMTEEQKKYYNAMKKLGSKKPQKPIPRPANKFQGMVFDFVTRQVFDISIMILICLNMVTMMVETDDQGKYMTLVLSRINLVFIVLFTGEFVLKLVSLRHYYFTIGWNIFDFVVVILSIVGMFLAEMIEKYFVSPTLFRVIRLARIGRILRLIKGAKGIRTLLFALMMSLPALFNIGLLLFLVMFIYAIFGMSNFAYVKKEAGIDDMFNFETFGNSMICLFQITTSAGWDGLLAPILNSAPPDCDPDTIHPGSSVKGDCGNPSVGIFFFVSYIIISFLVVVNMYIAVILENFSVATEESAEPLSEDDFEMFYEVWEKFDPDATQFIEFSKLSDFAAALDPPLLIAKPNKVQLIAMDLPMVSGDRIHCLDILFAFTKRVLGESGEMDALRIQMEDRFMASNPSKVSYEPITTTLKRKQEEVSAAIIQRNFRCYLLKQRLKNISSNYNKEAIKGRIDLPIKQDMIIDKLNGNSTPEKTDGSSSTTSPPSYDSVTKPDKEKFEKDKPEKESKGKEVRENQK

Turning to `NC1=N[C@H](O)[C@H]2[C@H]3O[C@]4(O)O[C@@H]([C@@H](O)[C@@]2(N1)[C@@H]4O)[C@]3(O)CO` [TTX, tetrodotoxin], the IC50 at NaV1.3 is 15 nM.

As to `NCC1(CC(=O)O)CCCCC1` [Gabapentin], in the data set with neuropathic pain, the “share of patients in whom it works” value is 60%.
